Structures can show the parent of a compound that is named as a salt. Where only a bound is given, the exact number is not on record here.

One data set deals with HTT CJ mRNA. The data set can be described thus: Gene panel canonical junction qPCR assay, HTT. Format: cell-based. The following applies: Homo sapiens, larger gene panel, read-out: HTT IC50 (decrease in CJ mRNA levels). The method in brief:
(§1)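 A673 or K562 cells treated 24 h with 11-point 3-fold dilutions (top 10 µM, ≤0.25% DMSO) at 37 °C. Canonical exon-junction mRNA measured by probe-based RT-qPCR, normalized to GAPDH, GUSB or PPIA and DMSO (2^−ΔΔCt), converted to percent response over a fixed ΔCt window; IC50 from 4-parameter fit.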

For a further data set, the system named is SMN2 CJ mRNA. The experiment in a line: Gene panel canonical junction qPCR assay, SMN2. Format: cell-based. To be noted: Homo sapiens, larger gene panel, read-out: SMN2 IC50 (decrease in CJ mRNA levels). The method in brief:
as §1

For a further data set, the system named is Target C CJ mRNA. The experiment in a line: Gene panel canonical junction qPCR assay, Target C. Format: cell-based. To be noted: Homo sapiens, larger gene panel, read-out: Target C IC50 (decrease in CJ mRNA levels). In short, it runs like this:
as §1

The nature of the next data set: in vitro. The following applies: human.

On to `Cc1cn2nc(-c3cc(=O)n4cc(N(C)C5CC(C)(C)NC(C)(C)C5)sc4n3)cc(C)c2n1` [Compound 205, 7-(2,8-dimethylimidazo[1,2-b]pyridazin-6-yl)-2-(methyl(2,2,6,6-tetramethylpiperidin-4-yl)amino)-5H-thiazolo[3,2-a]pyrimidin-5-one], for which the half-maximal inhibitory concentration (IC50) with HTT CJ mRNA, in the data set with SMN2 CJ mRNA and with Target C CJ mRNA was 1000 to 10000 nM throughout. In addition, the GI50 at 72 h in the data set “in vitro” was in the range of 1000 to 10000 nM.
As for `Cc1cn2cc(-c3nn4c(=O)cc(N(C)C5CC(C)(C)NC(C)(C)C5)nc4s3)cc(F)c2n1` [Compound 215, 2-(8-fluoro-2-methylimidazo[1,2-a]pyridin-6-yl)-7-(methyl(2,2,6,6-tetramethylpiperidin-4-yl)amino)-5H-[1,3,4]thiadiazolo[3,2-a]pyrimidin-5-one], the IC50 lay in the range of 1000 to 10000 nM in the data set with HTT CJ mRNA, 100 to 1000 nM with SMN2 CJ mRNA and 1000 to 10000 nM in the data set with Target C CJ mRNA. Besides, in “in vitro”, the 50% growth inhibitory concentration (GI50) at 72 h is 1000 to 10000 nM.
On to `Cc1cn2cc(-n3cnc4nc(N(C)C5CC(C)(C)NC(C)(C)C5)sc4c3=O)cc(F)c2n1` [Compound 227, 6-(8-fluoro-2-methylimidazo[1,2-a]pyridin-6-yl)-2-(methyl(2,2,6,6-tetramethylpiperidin-4-yl)amino)thiazolo[4,5-d]pyrimidin-7(6H)-one, formate], for which the IC50 in the data set on HTT CJ mRNA, with SMN2 CJ mRNA and in the data set with Target C CJ mRNA was above 10000 nM throughout. In “in vitro”, the 50% growth inhibitory concentration (GI50) at 72 h is above 10000 nM.
As to `Cc1cn2nc(-c3cc4ccn(C5CCNCC5)c(=O)c4s3)cc(C)c2n1` [Compound 806, 2-(2,8-dimethylimidazo[1,2-b]pyridazin-6-yl)-6-(piperidin-4-yl)thieno[2,3-c]pyridin-7(6H)-one], the 50% inhibitory concentration (IC50) with HTT CJ mRNA, in the data set with SMN2 CJ mRNA and with Target C CJ mRNA was 100 to 1000 nM in each case.
`Cc1cn2cc(-c3cc4ccn(C5CCN(C)CC5)c(=O)c4s3)cc(F)c2n1` [Compound 808, 2-(8-fluoro-2-methylimidazo[1,2-a]pyridin-6-yl)-6-(1-methylpiperidin-4-yl)thieno[2,3-c]pyridin-7(6H)-one]: the concentration for half-maximal inhibition (IC50) in the data set with HTT CJ mRNA was 100 to 1000 nM; with SMN2 CJ mRNA, below 100 nM; in the data set with Target C CJ mRNA it was 1000 to 10000 nM.
In the case of `Cc1cn2nc(-c3cc4ccn(C5CCN(C)CC5)c(=O)c4s3)cc(C)c2n1` [Compound 809], the half-inhibitory concentration (IC50) is 1000 to 10000 nM in the data set with HTT CJ mRNA, 100 to 1000 nM in the data set on SMN2 CJ mRNA and 1000 to 10000 nM in the data set with Target C CJ mRNA.
For the compound `Cc1cn2nc(-c3nc4cnn(C5CCNCC5)c(=O)c4s3)cc(C)c2n1` [Compound 810], the IC50 in the data set on HTT CJ mRNA, with SMN2 CJ mRNA and with Target C CJ mRNA was 100 to 1000 nM each time.
`Cc1nc(-c2nc3cnn(C4CCNCC4)c(=O)c3s2)cc2cn(C)nc12` [Compound 811]: the IC50 in the data set on HTT CJ mRNA was 1000 to 10000 nM; with SMN2 CJ mRNA, 100 to 1000 nM; in the data set with Target C CJ mRNA, above 10000 nM.
On to `Cc1cn2cc(-c3nc4cnn(C5CCNCC5)c(=O)c4s3)nc(C)c2n1` [Compound 812, 2-(2,8-dimethylimidazo[1,2-a]pyrazin-6-yl)-6-(piperidin-4-yl)thiazolo[4,5-d]pyridazin-7(6H)-one], for which the IC50 with HTT CJ mRNA, in the data set with SMN2 CJ mRNA and in the data set with Target C CJ mRNA was above 10000 nM each time.

Values taken from patent US20240366612A1, “COMPOUNDS AND METHODS FOR MODULATING NUCLEIC ACID SPLICING” (REMIX THERAPEUTICS INC., priority 2021, published 2024).
